Results reported in publication PMC10671849, “Synthesis and Evaluation of Marine-Inspired Compounds Result in Hybrids with Antitrypanosomal and Antileishmanial Activities” (Marine Drugs, 2023).
Read-outs that look alike come from different tables or passages of the source.

Columns and labels:
[1] = tested on: L. infantum promastigotes; test: Anti-Leishmania activity, resazurin-based assay; assay type: cell-based; details: read-out: Anti-Parasitic Activity IC50 (µM) 95% CI, L. infantum Promastigotes
Procedure: Promastigotes from the L. infantum strain (MHOM/MA/67/ITMAP-263) were grown in 5-mL T25 flasks in Schneider’s insect medium supplemented with 10% heat-inactivated fetal bovine serum (FBS), 200 U/mL penicillin/streptomycin, 6 µg/mL Phenol Red, and 5 mM HEPES. The cultures were maintained in an incubator at 27 °C and diluted to 2 × 10^5/mL every 5 days. For the assays, the parasites used were equivalent to late/log with 2 or 3 days of culture.
The compounds’ efficacy against L. infantum promastigotes was evaluated using a resazurin-based assay. Parasites were added to 100 µL of serial dilutions of compounds in supplemented complete medium at a cell density of 5 × 10^5/mL. As a quality control, a dose–response curve to the antileishmanial drug miltefosine was included in all the assays. The final volume of the assay was 200 µL/well. Each condition was carried out in duplicate. Following 72 h of incubation at the specific conditions for parasites, 20 µL of a 0.5 mM resazurin solution was added, and the plates were incubated for a further 4 h under the same conditions. Fluorescence was measured at 544 nm and 590 nm excitation and emission wavelengths, respectively, using a Synergy 2 Multi-Mode Reader (Biotek, Winooski, VT, USA). Results are shown as % of parasite growth inhibition compared to control (untreated parasites) and represent the average of at least three independent experiments. The effect was evaluated by the determination of the IC50 value (concentration required to inhibit growth in 50%) and was calculated by non-linear regression curves using GraphPad Prism software, version 8.1.1 for Windows (GraphPad Software, San Diego, CA, USA).

[2] = tested on: T. brucei Lister 427 bloodstream forms; test: Anti-T. brucei activity, resazurin-based assay on bloodstream forms; assay type: cell-based, Trypanosoma brucei; details: for IC50: Trypanosoma brucei, read-out: Anti-Parasitic Activity IC50 (µM) 95% CI, T. brucei
Procedure: T. brucei Lister 427 bloodstream forms were grown in a humidified incubator at 37 °C and 5% CO2 in complete HMI-9 medium supplemented with 10% heat-inactivated fetal bovine serum (FBS) and 100 UI/mL penicillin/streptomycin. Parasite maintenance was performed in T25 ventilated flasks by subpassage at a concentration of 1 × 10^4/mL every 2 days in T25 ventilated flasks. Luciferase-expressing L. infantum (MHOM/MA/67/ITMAP-263) axenic amastigotes expressing episomal luciferase were maintained in MAA20 [31] at 37 °C in a 5% CO2 environment with subculture every 7 days at 1 × 10^6/mL in 5-mL T25 ventilated flasks.
The compounds’ efficacy against bloodstream-stage trypomastigotes was evaluated using a resazurin-based assay. Parasites were added to 100 µL of serial dilutions of compounds in supplemented complete medium at a cell density of 5 × 10^3/mL. As a quality control, a dose–response curve for the antitrypanosomal pentamidine was included in all the assays. The final volume of the assay was 200 µL/well. Each condition was carried out in duplicate. Following 72 h of incubation at the specific conditions for parasites, 20 […] of a 0.5 mM resazurin solution was added, and the plates were incubated for a further 4 h under the same conditions. Fluorescence was measured at 544 nm and 590 nm excitation and emission wavelength, respectively, using a Synergy 2 Multi-Mode Reader (Biotek, Winooski, VT, USA). The results are shown as % of parasite growth inhibition compared to control (untreated parasites) and represent the average of at least three independent experiments. The effect was evaluated by the determination of the IC50 value (concentration required to inhibit growth in 50%) and calculated by non-linear regression curves using GraphPad Prism software, version 8.1.1 for Windows (GraphPad Software, San Diego, CA, USA).

[3] = 72 h incubation, resazurin, highest concentration tested 40 µM, 95% CI in parentheses
[4] = bloodstream forms, 72 h incubation, resazurin

Question: With C=CCc1cc(Cn2cc(-c3nc4ccccc4c(=O)o3)nn2)c(O)c(OC)c1 [compound 14, 2-(1-(5-allyl-2-hydroxy-3-methoxybenzyl)-1H-1,2,3-triazol-4-yl)-4H-benzo[d][1,3]oxazin-4-one] as the molecule, how does the IC50 [1, 3] read?
Answer: Its IC50 is > 40 µM.

Question: What about the IC50 [2, 4] of the same molecule?
Answer: Its IC50 is 31.7 µM.

Question: Which IC50 [1, 3] does the source give for C=CCc1cc(Cn2cc(-c3nc4ccc(OC)cc4c(=O)[nH]3)nn2)c(O)c(OC)c1 [10b, 2-(1-(5-allyl-2-hydroxy-3-methoxybenzyl)-1H-1,2,3-triazol-4-yl)-6-methoxyquinazolin-4(3H)-one] here?
Answer: The IC50 was > 40 µM.

Question: And the IC50 [2, 4]?
Answer: Its IC50 is 19.9 µM.

Question: How did the IC50 ([1]; 72 h) turn out when C=CCc1ccc(O)c(OC)c1 [Eugenol, eugenol, reference compound] was run?
Answer: Its IC50 is > 40 µM.

Question: What about the IC50 ([2]; 72 h) of the same molecule?
Answer: Its IC50 is > 40 µM.

Question: How did the IC50 [1, 3] turn out when C=CCc1ccc(OCc2cn(CC(=O)Nc3ccccc3C(=O)O)nn2)c(OC)c1 [compound 13, 2-(2-(4-((4-allyl-2-methoxyphenoxy)methyl)-1H-1,2,3-triazol-1-yl)acetamido) benzoic acid] was run?
Answer: Its IC50 is > 40 µM.

Question: What about the IC50 [2, 4] of the same molecule?
Answer: The IC50 was > 40 µM.

Question: What does the source list for C=CCc1cc(Cn2cc(-c3nc4ccccc4c(=O)[nH]3)nn2)c(O)c(OC)c1 [10a, 2-(1-(5-allyl-2-hydroxy-3-methoxybenzyl)-1H-1,2,3-triazol-4-yl)quinazolin-4(3H)-one]?
Answer: IC50 [1, 3]: > 40 µM; IC50 [2, 4]: > 40 µM; Anti-Parasitic Activity IC50 (µM) 95% CI, T. brucei [2, 4]: did not show detectable values of IC50

Question: Which results are given for C=CCc1cc(Cn2cc(C(=O)Nc3ccc(Cl)cc3C(N)=O)nn2)c(O)c(OC)c1 [9d, 1-(5-allyl-2-hydroxy-3-methoxybenzyl)-N-(2-carbamoyl-4-chlorophenyl)-1H-1,2,3-triazole-4-carboxamide]?
Answer: IC50 [1, 3]: > 40 µM; IC50 [2, 4]: 15.9 µM

Question: C=CCc1cc(Cn2cc(C(=O)Nc3ccc(F)cc3C(N)=O)nn2)c(O)c(OC)c1 [9c, 1-(5-allyl-2-hydroxy-3-methoxybenzyl)-N-(2-carbamoyl-4-fluorophenyl)-1H-1,2,3-triazole-4-carboxamide] was tested. Which IC50 [1, 3] did it give?
Answer: The IC50 was 7.54 µM.

Question: What about the IC50 [2, 4] of the same molecule?
Answer: The IC50 was 21 µM.

Question: Which IC50 [1, 3] does the source give for C=CCc1cc(Cn2cc(-c3nc4ccc(F)cc4c(=O)[nH]3)nn2)c(O)c(OC)c1 [10c, 2-(1-(5-allyl-2-hydroxy-3-methoxybenzyl)-1H-1,2,3-triazol-4-yl)-6-fluoroquinazolin-4(3H)-one] here?
Answer: The IC50 was > 40 µM.

Question: And the IC50 [2, 4]?
Answer: Its IC50 is 11.2 µM.

Question: How did the IC50 [1, 3] turn out when C=CCc1cc(Cn2cc(C(=O)Nc3ccccc3C(N)=O)nn2)c(O)c(OC)c1 [9a, 1-(5-allyl-2-hydroxy-3-methoxybenzyl)-N-(2-carbamoylphenyl)-1H-1,2,3-triazole-4-carboxamide] was run?
Answer: Its IC50 is > 40 µM.

Question: And the IC50 [2, 4]?
Answer: Its IC50 is > 40 µM.

Question: And the “Anti-Parasitic Activity IC50 (µM) 95% CI, T. brucei” value [2, 4]?
Answer: The value was “did not show detectable values of IC50”.

Question: With C=CCc1cc(Cn2cc(C(=O)Nc3ccc(OC)cc3C(N)=O)nn2)c(O)c(OC)c1 [9b, 1-(5-allyl-2-hydroxy-3-methoxybenzyl)-N-(2-carbamoyl-4-methoxyphenyl)-1H-1,2,3-triazole-4-carboxamide] as the molecule, how does the IC50 [1, 3] read?
Answer: The IC50 was > 40 µM.

Question: What about the IC50 [2, 4] of the same molecule?
Answer: The IC50 was 16.4 µM.
